Experimental data: patent US20070202079A1, “Therapeutic compositions and methods useful in modulating protein tyrosine phosphatases” (priority 2006, published 2007)

What was measured:
[1] = molecular target: T1, PRL-1 (Homo sapiens, UniProt Q93096); assay: in vitro PTPase assay, recombinant PRL-1; assay type: biochemical; settings: 0.1-100 μg/ml
T1 construct: cDNAs of human PRL-1, PRL-2 and PRL-3 coding region were derived by RT-PCR; made in house; host or cells: DH5a bacteria (E. coli)
From the text: (§1) Sodium stibogluconate, suramin, sodium orthovanadate and GST fusion protein of SHP-1 have been described previously (Pathak et al., J. Immunol. 167, 3391 (2001)). Meglumine antimonate was obtained from Aventis. cDNAs of human PRL-1, PRL-2 and PRL-3 coding region were derived by RT-PCR from H9 cells (Safai, et al., Lancet 1, 1438 (1984)) and inserted in frame into the pGEX vector. cDNA of PRL-1R86 was generated by recombinant DNA technique using PRL-1 cDNA as template following established procedures (Jiao, et al., Mol. Cell. Biol. 16, 6985 (1996)). […]
(§2) In vitro PTPase assays were used to determine the effects of compounds on recombinant PTPases, following established procedures using a synthetic phosphotyrosine peptide or DiFMUP as the substrate (Pathak et al., J. Immunol. 167, 3391 (2001)). […] PTPase activity of individual reactions was measured by adding 100 μL of malachite green solution (UBI) and then quantifying the amounts of free phosphate cleaved by the PTPase from the peptide substrate by spectrometry (OD660 nm). […] Relative PTPase activities were calculated based on the formula: (PTPase activity in the presence of an inhibitory compound/PTPase activity in the absence of the compound)× 100%. […]

[2] = molecular target: T2, PRL-2 (Homo sapiens, UniProt Q12974); assay: in vitro PTPase assay, recombinant PRL-2; assay type: biochemical
T2 construct: cDNAs of human PRL-1, PRL-2 and PRL-3 coding region were derived by RT-PCR; made in house; host or cells: DH5a bacteria (E. coli)
From the text: as §1, §2

[3] = test system: GSTm8; assay: in vitro PTPase assay, GSTm8; assay type: biochemical; settings: 3-4 μg/ml or 10-100 μg/ml
From the text: In vitro PTPase assays were used to determine the effects of levamisole (Sigma), pentamidine (American Pharmaceutical Partners, Inc.), and ketoconazole (Sigma) on recombinant PTPases, following established procedures (Pathak et al., J. Immunol. 167, 3391 (2001); Pathak et al., Leukemia 16, 2285 (2002), Yi et al., J. Immunol. 169, 5978 (2002)) using a synthetic phosphotyrosine peptide or DiFMUP as the substrate as detailed above in section I.A.2.

[4] = test system: WiT49-N1; assay: WiT49-N1 cell growth, MTT; assay type: cell-based, human; settings: day 6
Protocol: For cell proliferation assays, cells were grown in 10% FCS culture medium containing various amounts of IFNs and/or sodium stibogluconate in 96 well plates and cultured at 37° C. for 3 or 6 days as indicated. The numbers of viable cells in proliferation assays were determined by MTT assays as described in Phatak et al., J. Immunol. 167, 3391 (2001).

[5] = test system: tumor-infiltrating and spleen immune cells (F4/80+, CD4+, CD8+); assay: immunohistochemistry of Renca tumors and spleen; assay type: in vivo, Balb/c mice; settings: mouse, in vivo
Protocol: Major internal organs and Renca tumors harvested from mice were fixed in 10% formalin or snap frozen in liquid nitrogen. H & E-stained tissue sections of the fixed samples were prepared and evaluated by microscopy as described previously (Yi, T., M. K. Pathak, D. J. Lindner, M. E. Ketterer, C. Farver, and E. C. Borden. 2002. Anticancer activity of sodium stibogluconate in synergy with IFNs. J Immunol 169:5978). Preparation of frozen tissue sections and immunohistochemistry were performed following established procedures (Joliat, M. J., P. A. Lang, B. L. Lyons, L. Burzenski, M. A. Lynes, T. Yi, J. P. Sundberg, and L. D. Shultz. 2002. Absence of CD5 dramatically reduces progression of pulmonary inflammatory lesions in SHP-1 protein-tyrosine phosphatase-deficient ‘viable motheaten’ mice. J Autoimmun 18:105). The antibodies used for immunohistochemistry were anti-CD4 (rat mAb, clone GK1.5, BD Biosciences, Franklin Lakes, N.J.), anti-CD8 (rat mAb, clone 53-6.7.5, BD Biosciences, Franklin Lakes, N.J.), anti-F4/80 (rat mAb, clone A3-1, Serotec, Oxford, UK) and anti-Asialo GM1 (rabbit polyclonal, Cedarlane, Hornby, Canada). […] Tissue sections of 2 mice/group were evaluated. The number of immune cells was semi-quantified based on the following scheme: […], 0-1 positive cells/40×field; +, 2-5 positive cells/40×field; ++, 6-10 positive cells/40×field, etc.

T1 sequence (Q93096 whole entry): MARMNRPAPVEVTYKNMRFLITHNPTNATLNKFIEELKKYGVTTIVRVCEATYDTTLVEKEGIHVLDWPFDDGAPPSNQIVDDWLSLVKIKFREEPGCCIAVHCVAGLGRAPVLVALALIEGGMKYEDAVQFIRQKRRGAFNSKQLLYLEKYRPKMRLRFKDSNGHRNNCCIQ
T2 sequence (Q12974 whole entry): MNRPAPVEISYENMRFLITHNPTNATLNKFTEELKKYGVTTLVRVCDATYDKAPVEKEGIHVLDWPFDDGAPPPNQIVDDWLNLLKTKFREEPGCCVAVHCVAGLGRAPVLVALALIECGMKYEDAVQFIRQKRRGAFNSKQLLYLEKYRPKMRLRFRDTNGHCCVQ

## CC(=O)N1CCN(c2ccc(OCC3COC(Cn4ccnc4)(c4ccc(Cl)cc4Cl)O3)cc2)CC1 (centres unmarked) [ketoconazole]
[1]
  retained PRL-1 PTPase activity: 60-70%
[2]
  activity against PRL-2: not effective
[3]
  inhibitory activity against GSTm8: no obvious inhibitory activity

## O.O.O.O.O.O.O.O.O.O=C([O-])[C@@H]1[O][Sb]2([O-])([O][Sb]34([OH])[O][C@H]([C@H](O)CO)[C@H]([O]3)[C@H](C(=O)[O-])[O]4)[O][C@H]([C@H](O)CO)[C@@H]1[O]2.[Na+].[Na+].[Na+] [sodium stibogluconate]
[4]
  WiT49-N1 growth inhibition activity with IFN-alpha: not enhanced by IFN-alpha
[5]
  numbers of tumor-infiltrating T cells or NK cells: little effect

## N=C(N)c1ccc(OCCCCCOc2ccc(C(=N)N)cc2)cc1 [pentamidine]
[1]
  retained PRL-1 PTPase activity: 70-80%
[2]
  activity against PRL-2: not effective
[3]
  inhibitory activity against GSTm8: no obvious inhibitory activity
